Among the data in PubChem BioAssay AID328 (DTP/NCI, 2004) are T/C values, retold here.

Values joined by “and” are separate entries in the source; they are usually repeats but may differ in a detail not shown here. Identical values can stand only once. Inconclusive results and toxic doses are left out.

For this test, the system named is BDF1 mice, P388 leukemia ip, median survival T/C. Put plainly: NCI In Vivo Anticancer Drug Screen. Data for tumor model P388 Leukemia (intraperitoneal) in B6D2F1 (BDF1) mice. As to conditions: endpoint: median survival time, higher = longer survival. Summed up:
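T/C = treated-group survival ÷ vehicle-control survival; tumour transplanted into mice before dosing.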

Setting [1] is: dose: 100.0 mg/kg/injection, schedule: Q04DX003 (ip), vehicle: saline with Tween-80.
Setting [2] is: dose: 25.0 mg/kg/injection, schedule: Q01DX009 (ip), vehicle: Klucel (hydroxypropylcellulose) (HPC).
The mark [3] stands for this setting: dose: 50.0 mg/kg/injection, schedule: Q01DX009 (ip), vehicle: saline with Tween-80.
[4] abbreviates: dose: 100.0 mg/kg/injection, schedule: Q01DX009 (ip), vehicle: saline with Tween-80.
Setting [5] is: dose: 200.0 mg/kg/injection, schedule: Q01DX009 (ip), vehicle: saline with Tween-80.
The mark [6] stands for this setting: dose: 100.0 mg/kg/injection, schedule: Q01DX009 (ip), vehicle: saline.
Where [7] appears, read: dose: 200.0 mg/kg/injection, schedule: Q01DX009 (ip), vehicle: saline.

With `CN(C)c1ccc(/C=N/NC(N)=S)nc1`, the T/C is, setting by setting: (dose: 44.0 mg/kg/injection, schedule: Q04DX003 (ip), vehicle: saline with Tween-80) 159 % of control; (dose: 66.0 mg/kg/injection, schedule: Q04DX003 (ip), vehicle: saline with Tween-80) 150 % of control and 163 % of control; under setting [1], 177 % of control; (dose: 150.0 mg/kg/injection, schedule: Q04DX003 (ip), vehicle: saline with Tween-80) 213 % of control.

For the molecule `CN(Cc1ccc(Nc2ccccc2)cc1)C1CCCCC1`, the T/C by setting is: (dose: 50.0 mg/kg/injection, schedule: Q01DX009 (ip), vehicle: other) 113 % of control; (dose: 100.0 mg/kg/injection, schedule: Q01DX009 (ip), vehicle: other) 160 % of control.

Regarding `Cc1c(C#N)c2n(c1C)CCN2`, the T/C was 104 % of control (dose: 6.0 mg/kg/injection, schedule: Q01DX009 (ip), vehicle: Klucel (hydroxypropylcellulose) (HPC)); 86 % of control (dose: 12.0 mg/kg/injection, schedule: Q01DX009 (ip), vehicle: Klucel (hydroxypropylcellulose) (HPC)); 92 % of control and 100 % of control under setting [2]; 95 % of control (dose: 25.0 mg/kg/injection, schedule: Q04DX003 (ip), vehicle: Klucel (hydroxypropylcellulose) (HPC)); 100 % of control (dose: 50.0 mg/kg/injection, schedule: Q04DX003 (ip), vehicle: Klucel (hydroxypropylcellulose) (HPC)); 108 % of control (dose: 100.0 mg/kg/injection, schedule: Q04DX003 (ip), vehicle: Klucel (hydroxypropylcellulose) (HPC)).

`Oc1ccccc1-c1nnc2n1N=C(c1ccc(-c3ccccc3)cc1)CS2`: the T/C is, setting by setting: under setting [3], 98 % of control; under setting [4], 98 % of control; under setting [5], 92 % of control.

Regarding `COS(=O)(=O)Oc1ccc2ccccc2c1`, the T/C was 98 % of control under setting [2]; 100 % of control (dose: 50.0 mg/kg/injection, schedule: Q01DX009 (ip), vehicle: Klucel (hydroxypropylcellulose) (HPC)); 108 % of control (dose: 100.0 mg/kg/injection, schedule: Q01DX009 (ip), vehicle: Klucel (hydroxypropylcellulose) (HPC)).

With `Nc1ccn(C2OC(CO)C(O)C2O)c(=O)n1` (configuration not stated), the T/C (dose: 5.0 mg/kg/injection, schedule: Q01DX010 (ip), vehicle: saline) is 190 % of control; the T/C (dose: 13.0 mg/kg/injection, schedule: Q03HX024 (ip), vehicle: saline) is 300 % of control; the T/C (dose: 16.0 mg/kg/injection, schedule: Q01DX005 (ip), vehicle: saline) is 170 % of control; the T/C (dose: 50.0 mg/kg/injection, schedule: Q01DX005 (ip), vehicle: Klucel (hydroxypropylcellulose) (HPC)) was 150 % of control; the T/C (dose: 60.0 mg/kg/injection, schedule: Q01DX010 (ip), vehicle: water) was 90 % of control and 110 % of control; the T/C (dose: 80.0 mg/kg/injection, schedule: Q01DX009 (ip), vehicle: water) was 86 % of control. Further, the T/C is, setting by setting: (dose: 80.0 mg/kg/injection, schedule: Q01DX010 (ip), vehicle: water) 90 % of control; under setting [6], 100 % of control; (dose: 100.0 mg/kg/injection, schedule: Q01DX009 (ip), vehicle: water) 86 % of control and 90 % of control; (dose: 100.0 mg/kg/injection, schedule: Q01DX010 (ip), vehicle: water) 90 % of control; (dose: 160.0 mg/kg/injection, schedule: Q01DX010 (ip), vehicle: saline) 100 % of control; (dose: 200.0 mg/kg/injection, schedule: Q01DX001 (ip), vehicle: saline) 100 % of control. In addition, the T/C is, setting by setting: under setting [7], 91 % of control and 110 % of control; (dose: 256.0 mg/kg/injection, schedule: Q01DX005 (ip), vehicle: saline) 96 % of control; (dose: 1500.0 mg/kg/injection, schedule: Q04DX003 (ip), vehicle: water) 200 % of control.

Regarding `CC[N+]1(CC)CCOC(=O)C1`, the T/C is 92 % of control under setting [6]; 92 % of control under setting [7]; 92 % of control (dose: 400.0 mg/kg/injection, schedule: Q01DX009 (ip), vehicle: saline).

In the case of `CNC(=O)N/N=C/c1ccccc1`, the T/C reads like this: (dose: 75.0 mg/kg/injection, schedule: Q01DX009 (ip), vehicle: saline with Tween-80) 101 % of control; (dose: 150.0 mg/kg/injection, schedule: Q01DX009 (ip), vehicle: saline with Tween-80) 97 % of control; (dose: 300.0 mg/kg/injection, schedule: Q01DX009 (ip), vehicle: saline with Tween-80) 92 % of control.

Turning to `CCCCOC(=O)c1ccc(OCCOc2ccc(C(C)(C)CC(C)(C)C)cc2)c(NC(=O)CC(=O)c2cccc(N)c2)c1`, the T/C runs as follows: (dose: 6.25 mg/kg/injection, schedule: Q04DX003 (ip), vehicle: saline sonified) 100 % of control; (dose: 12.5 mg/kg/injection, schedule: Q04DX003 (ip), vehicle: saline sonified) 91 % of control.

Consider `O=c1c(N=Nc2ccccc2)c(O)n(-c2ccccc2)c(=S)n1-c1ccccc1`, for which the T/C (dose: 25.0 mg/kg/injection, schedule: Q01DX001 (ip), vehicle: saline with Tween-80) was 100 % of control; the T/C (dose: 50.0 mg/kg/injection, schedule: Q01DX001 (ip), vehicle: saline with Tween-80) is 90 % of control; the T/C (dose: 100.0 mg/kg/injection, schedule: Q01DX001 (ip), vehicle: saline with Tween-80) is 95 % of control.

Take `CC1(C)C2CCC1(C)C(OC(=O)c1ccc([N+](=O)[O-])cc1)C2OC(=O)c1ccc([N+](=O)[O-])cc1` (configuration not stated): the T/C is, setting by setting: (dose: 75.0 mg/kg/injection, schedule: Q04DX003 (ip), vehicle: other) 100 % of control; (dose: 150.0 mg/kg/injection, schedule: Q04DX003 (ip), vehicle: other) 91 % of control; (dose: 300.0 mg/kg/injection, schedule: Q04DX003 (ip), vehicle: other) 91 % of control.

On to `c1cc2c3c(c1)/C(=N\N=C1/CCN4CCCc5cccc1c54)CCN3CCC2`, for which the T/C is 104 % of control under setting [3]; 90 % of control (dose: 50.0 mg/kg/injection, schedule: Q04DX003 (ip), vehicle: saline with Tween-80); 104 % of control under setting [4]; 100 % of control under setting [1]; 104 % of control under setting [5]; 100 % of control (dose: 200.0 mg/kg/injection, schedule: Q04DX003 (ip), vehicle: saline with Tween-80).

As for `CSC/C(=N\Nc1ccc([N+](=O)[O-])cc1[N+](=O)[O-])c1ccccc1`, the T/C is 100 % of control (dose: 1.56 mg/kg/injection, schedule: Q01DX001 (ip), vehicle: saline with Tween-80); 104 % of control (dose: 3.13 mg/kg/injection, schedule: Q01DX001 (ip), vehicle: saline with Tween-80); 114 % of control (dose: 6.25 mg/kg/injection, schedule: Q01DX001 (ip), vehicle: saline with Tween-80).

As to `CCSc1ccc2c(c1)N(CCCN1CCN(C)CC1)c1ccccc1S2`, the T/C is 110 % of control (dose: 15.0 mg/kg/injection, schedule: Q04DX003 (ip), vehicle: saline); 112 % of control (dose: 25.0 mg/kg/injection, schedule: Q01DX009 (ip), vehicle: saline with Tween-80); 92 % of control (dose: 25.0 mg/kg/injection, schedule: Q01DX009 (ip), vehicle: saline); 120 % of control (dose: 30.0 mg/kg/injection, schedule: Q04DX003 (ip), vehicle: saline); 91 % of control under setting [3]; 103 % of control (dose: 50.0 mg/kg/injection, schedule: Q01DX009 (ip), vehicle: saline). The T/C is 90 % of control (dose: 100.0 mg/kg/injection, schedule: Q04DX003 (ip), vehicle: saline); 105 % of control (dose: 120.0 mg/kg/injection, schedule: Q04DX003 (ip), vehicle: saline); 150 % of control (dose: 200.0 mg/kg/injection, schedule: Q04DX003 (ip), vehicle: saline).

Regarding `CC1(C)COCN1COC1CCCCC1`, the T/C under setting [5] is 90 % of control.

For `Cc1[nH]n(CCO)c(=O)c1N=O`, the T/C runs as follows: (dose: 15.0 mg/kg/injection, schedule: Q01DX009 (ip), vehicle: saline with Tween-80) 95 % of control; (dose: 30.0 mg/kg/injection, schedule: Q01DX009 (ip), vehicle: saline with Tween-80) 93 % of control; (dose: 60.0 mg/kg/injection, schedule: Q01DX009 (ip), vehicle: saline with Tween-80) 100 % of control.

On to `CC(=O)CC(=O)NCCCc1ccccc1`, for which the T/C runs as follows: (dose: 100.0 mg/kg/injection, schedule: Q04DX003 (sc), vehicle: olive oil, sesame oil, peanut oil) 109 % of control; (dose: 200.0 mg/kg/injection, schedule: Q04DX003 (sc), vehicle: olive oil, sesame oil, peanut oil) 100 % of control; (dose: 400.0 mg/kg/injection, schedule: Q04DX003 (sc), vehicle: olive oil, sesame oil, peanut oil) 100 % of control.
